Each structure is given as a SMILES string. Calls of active or inactive are those of the source. The rule behind the calls is not given here.

Assay [1] addresses Carbonic anhydrase 13 (Homo sapiens, UniProt Q8N1Q1). Nature of the assay: Inhibition of human carbonic anhydrase 13 incubated for 15 mins prior to testing by stopped-flow CO2 hydration assay.
Assay [2] concerns the target Carbonic anhydrase 2 (Homo sapiens, UniProt P00918). Put plainly: Inhibition of human carbonic anhydrase 2 incubated for 15 mins prior to testing by stopped-flow CO2 hydration assay.
For assay [3], the target named is Carbonic anhydrase 12 (Homo sapiens, UniProt O43570). Nature of the assay: Inhibition of human carbonic anhydrase 12 incubated for 15 mins prior to testing by stopped-flow CO2 hydration assay.
Assay [4] concerns the target Carbonic anhydrase 5A, mitochondrial (Homo sapiens, UniProt P35218). Put plainly: Inhibition of human carbonic anhydrase 5A incubated for 15 mins prior to testing by stopped-flow CO2 hydration assay.
The target of assay [5] is Carbonic anhydrase 9 (Homo sapiens, UniProt Q16790). Put plainly: Inhibition of human carbonic anhydrase 9 incubated for 15 mins prior to testing by stopped-flow CO2 hydration assay.
The target of assay [6] is Carbonic anhydrase 6 (Homo sapiens, UniProt P23280). Put plainly: Inhibition of human carbonic anhydrase 6 incubated for 15 mins prior to testing by stopped-flow CO2 hydration assay.
Assay [7] has as its target Carbonic anhydrase 7 (Homo sapiens, UniProt P43166). Put plainly: Inhibition of human carbonic anhydrase 7 incubated for 15 mins prior to testing by stopped-flow CO2 hydration assay.
Assay [8] addresses Carbonic anhydrase 5B, mitochondrial (Homo sapiens, UniProt Q9Y2D0). Put plainly: Inhibition of human carbonic anhydrase 5B incubated for 15 mins prior to testing by stopped-flow CO2 hydration assay.
Assay [9] has as its target Carbonic anhydrase 4 (Homo sapiens, UniProt P22748). Nature of the assay: Inhibition of human carbonic anhydrase 4 incubated for 15 mins prior to testing by stopped-flow CO2 hydration assay.
For assay [10], the target named is Carbonic anhydrase 1 (Homo sapiens, UniProt P00915). Nature of the assay: Inhibition of human carbonic anhydrase 1 incubated for 15 mins prior to testing by stopped-flow CO2 hydration assay.
Assay [11] concerns the target Carbonic anhydrase 3 (Homo sapiens, UniProt P07451). Nature of the assay: Inhibition of human carbonic anhydrase 3 incubated for 15 mins prior to testing by stopped-flow CO2 hydration assay.
Assay [12] has as its system Mus musculus. Nature of the assay: Analgesic activity in oxaliplatin-induced neuropathic pain CD-1 albino mouse model assessed as decrease in pain-related behaviour measured as licking latency at 100 mg/kg, po treated on day 15 post oxaliplatin treatment and measured after 45 mins by cold plate test. The assay is classed as functional, organism-based.
Assay [13] relates to Mus musculus. Put plainly: Analgesic activity in oxaliplatin-induced neuropathic pain CD-1 albino mouse model assessed as decrease in pain-related behaviour measured as licking latency at 100 mg/kg, po treated on day 15 post oxaliplatin treatment and measured after 45 to 60 mins by cold plate test. It counts as functional, organism-based.
In assay [14] the test system is Mus musculus. Nature of the assay: Analgesic activity in orally dosed oxaliplatin-induced neuropathic pain CD-1 albino mouse model assessed as decrease in pain-related behaviour measured as licking latency treated on day 15 post oxaliplatin treatment by cold plate test. It counts as functional, organism-based.
The test system of assay [15] is Mus musculus. Put plainly: Analgesic activity in oxaliplatin-induced neuropathic pain CD-1 albino mouse model assessed as licking latency at 30 to 100 mg/kg, po treated on day 15 post oxaliplatin treatment by cold plate test. The assay is classed as functional, organism-based.

Chain of Carbonic anhydrase 5A, mitochondrial (P35218 whole entry): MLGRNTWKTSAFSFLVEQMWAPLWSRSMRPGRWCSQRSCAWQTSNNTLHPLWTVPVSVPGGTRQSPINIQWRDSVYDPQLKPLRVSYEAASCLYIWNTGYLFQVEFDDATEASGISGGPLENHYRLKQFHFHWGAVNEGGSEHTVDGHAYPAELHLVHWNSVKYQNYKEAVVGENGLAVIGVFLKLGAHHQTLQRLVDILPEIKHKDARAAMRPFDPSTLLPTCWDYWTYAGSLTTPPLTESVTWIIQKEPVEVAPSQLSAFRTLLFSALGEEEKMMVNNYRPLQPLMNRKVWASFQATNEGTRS
Chain of Carbonic anhydrase 5B, mitochondrial (Q9Y2D0 whole entry): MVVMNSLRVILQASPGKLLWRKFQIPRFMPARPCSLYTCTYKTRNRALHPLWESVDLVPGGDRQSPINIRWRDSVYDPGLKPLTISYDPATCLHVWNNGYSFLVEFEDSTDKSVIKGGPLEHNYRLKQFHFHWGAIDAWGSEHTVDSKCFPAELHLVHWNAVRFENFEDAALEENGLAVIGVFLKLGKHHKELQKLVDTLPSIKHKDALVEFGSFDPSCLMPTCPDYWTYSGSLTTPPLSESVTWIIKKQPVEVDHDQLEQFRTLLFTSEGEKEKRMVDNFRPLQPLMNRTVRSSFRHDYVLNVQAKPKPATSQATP
Chain of Carbonic anhydrase 12 (O43570 whole entry): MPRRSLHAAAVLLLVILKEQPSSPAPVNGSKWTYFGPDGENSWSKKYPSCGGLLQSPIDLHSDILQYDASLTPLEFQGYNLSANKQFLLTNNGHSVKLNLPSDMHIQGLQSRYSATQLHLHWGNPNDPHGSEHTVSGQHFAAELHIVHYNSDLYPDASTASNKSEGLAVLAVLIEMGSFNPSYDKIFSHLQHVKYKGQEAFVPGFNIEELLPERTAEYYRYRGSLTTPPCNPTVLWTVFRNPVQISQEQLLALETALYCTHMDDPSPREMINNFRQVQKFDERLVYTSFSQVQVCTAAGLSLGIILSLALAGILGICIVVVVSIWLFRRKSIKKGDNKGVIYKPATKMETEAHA
Chain of Carbonic anhydrase 4 (P22748 whole entry): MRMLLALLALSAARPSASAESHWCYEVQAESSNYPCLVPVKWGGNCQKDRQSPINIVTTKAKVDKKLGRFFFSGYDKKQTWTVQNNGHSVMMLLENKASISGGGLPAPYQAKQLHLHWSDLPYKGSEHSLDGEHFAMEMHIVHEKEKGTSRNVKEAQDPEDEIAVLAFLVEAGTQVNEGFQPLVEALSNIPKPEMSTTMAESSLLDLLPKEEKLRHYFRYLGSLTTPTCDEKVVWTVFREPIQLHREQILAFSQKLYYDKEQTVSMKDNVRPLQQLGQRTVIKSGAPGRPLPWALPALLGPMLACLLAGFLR
Chain of Carbonic anhydrase 7 (P43166 whole entry): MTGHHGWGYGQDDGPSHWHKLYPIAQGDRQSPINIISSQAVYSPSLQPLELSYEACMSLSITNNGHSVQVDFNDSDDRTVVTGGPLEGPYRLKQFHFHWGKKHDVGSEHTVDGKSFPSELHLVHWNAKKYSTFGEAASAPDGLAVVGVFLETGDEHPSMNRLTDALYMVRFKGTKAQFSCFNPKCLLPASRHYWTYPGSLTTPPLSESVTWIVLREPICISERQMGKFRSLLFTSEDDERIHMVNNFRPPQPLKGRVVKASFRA
Chain of Carbonic anhydrase 13 (Q8N1Q1 whole entry): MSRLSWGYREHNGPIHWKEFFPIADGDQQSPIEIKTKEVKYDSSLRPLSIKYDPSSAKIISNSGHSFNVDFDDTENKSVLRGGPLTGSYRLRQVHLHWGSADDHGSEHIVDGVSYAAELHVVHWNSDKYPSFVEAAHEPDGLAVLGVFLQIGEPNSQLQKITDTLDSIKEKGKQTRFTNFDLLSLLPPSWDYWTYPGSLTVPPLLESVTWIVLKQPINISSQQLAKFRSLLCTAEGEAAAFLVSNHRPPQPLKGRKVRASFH
Chain of Carbonic anhydrase 3 (P07451 whole entry): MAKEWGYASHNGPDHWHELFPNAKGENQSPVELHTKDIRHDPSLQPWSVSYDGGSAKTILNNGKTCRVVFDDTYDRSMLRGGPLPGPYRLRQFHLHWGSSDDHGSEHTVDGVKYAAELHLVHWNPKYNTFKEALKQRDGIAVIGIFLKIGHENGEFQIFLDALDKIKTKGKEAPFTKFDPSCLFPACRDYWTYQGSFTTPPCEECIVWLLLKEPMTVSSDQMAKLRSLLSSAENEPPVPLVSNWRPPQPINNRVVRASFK
Chain of Carbonic anhydrase 1 (P00915 whole entry): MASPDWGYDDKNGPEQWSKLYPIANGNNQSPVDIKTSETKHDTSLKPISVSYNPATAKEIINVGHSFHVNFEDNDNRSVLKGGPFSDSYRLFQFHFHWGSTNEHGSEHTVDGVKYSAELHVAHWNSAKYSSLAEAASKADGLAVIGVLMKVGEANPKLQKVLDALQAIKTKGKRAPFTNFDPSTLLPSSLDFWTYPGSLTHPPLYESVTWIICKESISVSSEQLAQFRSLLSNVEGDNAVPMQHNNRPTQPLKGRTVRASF
Chain of Carbonic anhydrase 6 (P23280 whole entry): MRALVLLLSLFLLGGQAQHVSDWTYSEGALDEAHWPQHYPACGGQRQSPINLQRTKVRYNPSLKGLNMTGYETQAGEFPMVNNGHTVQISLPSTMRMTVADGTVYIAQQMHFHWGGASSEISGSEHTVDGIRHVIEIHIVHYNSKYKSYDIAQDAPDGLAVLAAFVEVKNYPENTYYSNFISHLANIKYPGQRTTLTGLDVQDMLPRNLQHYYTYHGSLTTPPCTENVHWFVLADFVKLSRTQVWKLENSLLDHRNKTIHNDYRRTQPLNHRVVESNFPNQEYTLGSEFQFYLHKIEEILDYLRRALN

For the compound `NS(=O)(=O)c1ccc(CCNC(=O)CN2C(=O)NC3(CCCC3)C2=O)cc1`, the Ki in assay [1] is above 10 µM; in [2], 0.0069 µM; in assay [3], 0.0062 µM; in assay [4], 3.94 µM; in assay [5], 0.122 µM; in [6], above 10 µM. Further, the Ki in [7] is 0.0047 µM; in assay [8], above 10 µM; in assay [9] it was 9.66 µM; in assay [10], 6.33 µM; in [11] it was above 10 µM.

In the case of `NS(=O)(=O)c1ccc(CNC(=O)CN2C(=O)NC3(CCCCC3)C2=O)cc1`, the Ki is above 10 µM in [1]; 0.0207 µM in [2]; 0.728 µM in [3]; 0.105 µM in assay [5]; 0.0054 µM in assay [7]; 0.47 µM in assay [10].

As to `CC1CCCC2(C1)NC(=O)N(CC(=O)NCCc1ccc(S(N)(=O)=O)cc1)C2=O` (stereo not given), the Ki was above 10 µM in [1]; 0.0007 µM in [2]; 0.0834 µM in [3]; 8.68 µM in [4]; 0.477 µM in [5]; above 10 µM in assay [6]. The Ki in assay [7] is 0.003 µM; in [8], above 10 µM; in assay [9], 7.19 µM; in assay [10], 0.306 µM; in assay [11], above 10 µM.

As for `NS(=O)(=O)c1ccc(C[Se]c2ccc(NC(=O)CN3C(=O)NC4(CCCCCC4)C3=O)cc2)cc1`, the inhibitory constant (Ki) in assay [1] is 0.0884 µM; in assay [2], 0.0228 µM; in assay [3] it was 0.0494 µM; in [5], 0.0064 µM; in [7], 0.0047 µM; in [10] it was 0.384 µM. In addition, the outcome in [12] was Active.

With `NS(=O)(=O)c1ccc(NC(=O)CN2C(=O)NC3(CCCCCC3)C2=O)cc1`, the Ki in assay [1] was above 10 µM; in [2], 0.0012 µM; in assay [3], 0.0428 µM; in [5] it was 0.0043 µM; in assay [7] it was 0.0008 µM; in assay [10] it was 0.237 µM.

As to `NS(=O)(=O)c1ccc(CNC(=O)CN2C(=O)NC3(CCCCCC3)C2=O)cc1`, the Ki in assay [1] is above 10 µM; in [2], 0.0471 µM; in assay [3] it was 0.0623 µM; in assay [5], 0.0035 µM; in assay [7], 0.0037 µM; in [10] it was 0.649 µM.

As to `NS(=O)(=O)c1ccc(CNC(=O)CN2C(=O)NC3(CCCC3)C2=O)cc1`, the inhibitory constant (Ki) in [1] was 2.17 µM; in assay [2], 0.0015 µM; in [3], 0.0096 µM; in assay [5], 0.093 µM; in assay [7], 0.0036 µM; in [10] it was 2.77 µM.

Consider `CC1CCCC2(C1)NC(=O)N(CC(=O)Nc1ccc([Se]Cc3ccc(S(N)(=O)=O)cc3)cc1)C2=O` (stereo not given), for which the inhibition constant (Ki) in assay [1] amounted to 0.767 µM; in assay [2], 0.0007 µM; in assay [3], 0.0086 µM; in assay [5], 0.0178 µM; in assay [7] it was 0.0047 µM; in assay [10], 0.0623 µM. Moreover, the outcome in assay [12] was Active.

Consider `NS(=O)(=O)c1ccc(NC(=O)CN2C(=O)NC3(CCCC3)C2=O)cc1`, for which the Ki is above 10 µM in [1]; 0.0007 µM in assay [2]; 0.0537 µM in assay [3]; 0.0119 µM in assay [5]; 0.0008 µM in assay [7]; 0.141 µM in [10]. Also, the outcome in assay [13] was Active. The Activity entry in [14] was “Dose-dependent effect”.

For the compound `CC1CCCC2(C1)NC(=O)N(CC(=O)Nc1ccc(S(N)(=O)=O)cc1)C2=O` (stereo not given), the inhibitory constant (Ki) in assay [1] was found to be 5.78 µM; in [2], 0.0008 µM; in [3], 0.0397 µM; in [5] it was 0.0026 µM; in assay [7] it was 0.0015 µM; in [10], 0.0803 µM.

For `NS(=O)(=O)c1ccc(C[Se]c2ccc(NC(=O)CN3C(=O)NC4(CCCCC4)C3=O)cc2)cc1`, the Ki in assay [1] is above 10 µM; in [2], 0.0196 µM; in assay [3] it was 0.0041 µM; in assay [5], 0.0033 µM; in [7], 0.0002 µM; in [10], 0.0636 µM.

Consider `NS(=O)(=O)c1ccc(CCNC(=O)CN2C(=O)NC3(CCCCCC3)C2=O)cc1`, for which the Ki is above 10 µM in assay [1]; 0.00071 µM in assay [2]; 0.0629 µM in assay [3]; 6.18 µM in assay [4]; 0.0331 µM in assay [5]; above 10 µM in assay [6]. Moreover, the Ki in assay [7] is 0.0051 µM; in [8], above 10 µM; in [9], 6.49 µM; in [10], 0.491 µM; in [11], above 10 µM.

For the compound `NS(=O)(=O)c1ccc(CCNC(=O)CN2C(=O)NC3(CCCCC3)C2=O)cc1`, the Ki in assay [1] was 7.41 µM; in assay [2] it was 0.0071 µM; in assay [3], 0.0866 µM; in assay [4], 0.534 µM; in [5], 0.0767 µM; in [6], above 10 µM. Moreover, the Ki in [7] was 0.0069 µM; in assay [8] it was 7.32 µM; in assay [9], 8.01 µM; in assay [10] it was 0.626 µM; in [11], above 10 µM.

Take `NS(=O)(=O)c1ccc(NC(=O)CN2C(=O)NC3(CCCCC3)C2=O)cc1`: the inhibition constant Ki in assay [1] is 0.809 µM; in [2], 0.0031 µM; in assay [3], 0.0466 µM; in assay [5], 0.0033 µM; in [7], 0.0013 µM; in assay [10], 0.0075 µM. Further, the result in assay [15] was inactive.

With `CC1CCCC2(C1)NC(=O)N(CC(=O)NCc1ccc(S(N)(=O)=O)cc1)C2=O` (stereo not given), the Ki is above 10 µM in assay [1]; 0.0083 µM in [2]; 0.0333 µM in [3]; 0.229 µM in [5]; 0.0044 µM in [7]; 0.853 µM in [10].

Values taken from ChEMBL document CHEMBL4350990, “Benzensulfonamides bearing spyrohydantoin moieties act as potent inhibitors of human carbonic anhydrases II and VII and show neuropathic pain attenuating effects” (Eur J Med Chem, 2019).
